Measurements from PMC10511816 (The Journal of Biological Chemistry, 2023).

Tests used:
[1] = biological target: T1, Purine nucleoside phosphorylase (PNP) (Homo sapiens, UniProt P00491); assay: PNP activity assay (inosine degradation, HPLC); assay type: biochemical; conditions: human recombinant PNP
T1 construct: purchased Sigma-Aldrich; host or cells: E. coli
T1 sequence (P00491 1-289): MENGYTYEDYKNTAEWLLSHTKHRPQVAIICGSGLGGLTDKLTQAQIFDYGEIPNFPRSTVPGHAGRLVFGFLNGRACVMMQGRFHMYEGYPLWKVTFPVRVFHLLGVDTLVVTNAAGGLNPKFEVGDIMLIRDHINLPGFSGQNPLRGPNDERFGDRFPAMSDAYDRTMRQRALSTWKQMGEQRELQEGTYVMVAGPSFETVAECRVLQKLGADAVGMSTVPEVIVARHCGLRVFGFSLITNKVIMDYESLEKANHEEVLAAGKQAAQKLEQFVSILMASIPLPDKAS
Source text: Plasma allopurinol never reaches that concentration, but oxypurinol concentrations could ([34], [35]). Although oxypurinol has been reported to have a stronger inhibitory effect than allopurinol ([32], [36]), the results were obtained prior to several reports on the cooperativity of PNP ([37]). […] This nonideal behavior may be a manifestation of the well-established allosteric properties of PNP ([37]).
Purine nucleoside phosphorylase (human, recombinantly expressed in E. coli) was purchased from Sigma-Aldrich. The reaction solution for inosine hydrolysis consisted of 50 mM KPB (pH 7.4), with varying concentrations of inosine and oxypurinol.
A295 indicates the concentration of uric acid yielded by XOR. […] A295 indicates the concentration of uric acid yielded by XOR. Figure S2. The XOR inhibition mode of oxypurinol.A–G, Lineweaver-Burk plots were generated to visualize data and estimated the inhibition patterns. Data are representative of least two independent experiments. […] The same as in A except that 1.23 nM XDH was used instead of XO and 500 μM NAD^+ was added to the reaction solution. […] The same as in D except that hypoxanthine was used instead of xanthine. […] The same as in D except that febuxostat was used instead of oxypurinol. […] The same as in F except that hypoxanthine was used instead of xanthine. Figure S3. […] Hypoxanthine, xanthine, and uric acid were measured by HPLC.

[2] = biological target: T1, Purine nucleoside phosphorylase (PNP); parameters: method as in PMID 5653179, PMID 121041; conditions: cited from earlier work

SMILES | inhibition of PNP [1] | mode of inhibition for inosine ([1]; 50 mM KPB pH 7.4, 0-1000 μM oxypurinol) | Ki [2]
O=c1[nH]c(=O)c2c[nH]nc2[nH]1 [Oxypurinol] | weakly but allosterically inhibits PNP | competitive | 
Oc1ncnc2[nH]ncc12 [Allopurinol] |  |  | > 200 µM
